US10894067B2, “Genome stability enhancer” (Yamada Bee Company, Inc., priority 2017, dated 2021)

Tested on: H2AX expression in MEF (mouse embryo fibroblast) cells
Experiment: Western analysis of H2AX expression in MEF cells (Test Examples 1-3)
Format: cell-based
Protocol: MEF (mouse embryo fibroblast) cells were cultured at 37° C. in 5% CO2 by the 3T3 method in a 10% FCS (fetal calf serum)-containing DMEM medium to which a 25 μg/ml enzymatically treated RJ or non-treated RJ was added. The cells that were cultured for 0, 3, 6, 12, and 24 hours were harvested, and Western analysis was performed using a H2AX antibody (Bethyl Laboratories, Inc.) and a β-actin antibody (AC-74, Sigma-Aldrich Co. LLC.).
In the same manner as in Test Example 1, the effects of melinjo and trans-resveratrol on H2AX expression were analyzed. In this test example, a 0.26, 0.52, 1.0, or 2.1 w/v % melinjo seed extract or trans-resveratrol was added to a medium, and cells were cultured for 1 hour and harvested.

Oc1ccc(/C=C/c2cc(O)cc(O)c2)cc1 [trans-resveratrol]
Induced transient H2AX expression (Test Example 2, 0.26, 0.52, 1.0 or 2.1 w/v % in medium, cultured 1 hour, FIG. 2): Induced transient H2AX expression was observed
Induced transient H2AX expression (Test Example 3, 2.5 μM (0.52 μg/ml) trans-resveratrol, 0.52 μg/ml melinjo seed extract, 2.5 μM gnetin C, 0-24 hours, FIG. 3): Induced transient H2AX expression was observed
